# From the NIST ThermoML archive (doi:10.1016/j.tca.2010.08.002)
# Numbers after ± are expanded uncertainties.
# Columns and labels:
# [1] = Molar enthalpy of transition or fusion; conditions: Adiabatic calorimetry
# [2] = molar heat capacity at constant pressure; conditions: 101.33 kPa, Vacuum adiabatic calorimetry
structure (smiles),measurement,setting,value
CCCCn1cc[n+](C)c1.O=S(=O)([O-])C(F)(F)F [1-butyl-3-methylimidazolium trifluoromethanesulfonate],Molar enthalpy of transition or fusion,[1]; Crystal 1,4.644 ± 0.00956 kcal/mol
same,Molar enthalpy of transition or fusion,[1]; Crystal 2,0.00311 ± 0.000239 kcal/mol
same,molar heat capacity at constant pressure,"[2]; 5 K, Crystal 2",1.486 ± 0.031 J/K/mol
same,molar heat capacity at constant pressure,"[2]; 10 K, Crystal 2",10.2 ± 0.1 J/K/mol
same,molar heat capacity at constant pressure,"[2]; 15 K, Crystal 2",23.78 ± 0.18 J/K/mol
same,molar heat capacity at constant pressure,"[2]; 20 K, Crystal 2",38.56 ± 0.23 J/K/mol
same,molar heat capacity at constant pressure,"[2]; 25 K, Crystal 2",52.98 ± 0.25 J/K/mol
same,molar heat capacity at constant pressure,"[2]; 30 K, Crystal 2",66.38 ± 0.18 J/K/mol
same,molar heat capacity at constant pressure,"[2]; 35 K, Crystal 2",78.37 ± 0.2 J/K/mol
same,molar heat capacity at constant pressure,"[2]; 40 K, Crystal 2",88.95 ± 0.22 J/K/mol
same,molar heat capacity at constant pressure,"[2]; 45 K, Crystal 2",98.67 ± 0.24 J/K/mol
same,molar heat capacity at constant pressure,"[2]; 50 K, Crystal 2",107.5 ± 0.3 J/K/mol
same,molar heat capacity at constant pressure,"[2]; 55 K, Crystal 2",115.5 ± 0.3 J/K/mol
same,molar heat capacity at constant pressure,"[2]; 60 K, Crystal 2",123 ± 0.3 J/K/mol
same,molar heat capacity at constant pressure,"[2]; 65 K, Crystal 2",130 ± 0.3 J/K/mol
same,molar heat capacity at constant pressure,"[2]; 70 K, Crystal 2",136.6 ± 0.3 J/K/mol
same,molar heat capacity at constant pressure,"[2]; 80 K, Crystal 2",148.9 ± 0.3 J/K/mol
same,molar heat capacity at constant pressure,"[2]; 90 K, Crystal 2",160 ± 0.4 J/K/mol
same,molar heat capacity at constant pressure,"[2]; 100 K, Crystal 2",170.5 ± 0.4 J/K/mol
same,molar heat capacity at constant pressure,"[2]; 110 K, Crystal 2",180.5 ± 0.4 J/K/mol
same,molar heat capacity at constant pressure,"[2]; 120 K, Crystal 1",192.4 ± 0.4 J/K/mol
same,molar heat capacity at constant pressure,"[2]; 120 K, Crystal 2",192.4 ± 0.4 J/K/mol
same,molar heat capacity at constant pressure,"[2]; 130 K, Crystal 1",198.6 ± 0.4 J/K/mol
same,molar heat capacity at constant pressure,"[2]; 140 K, Crystal 1",206.9 ± 0.4 J/K/mol
same,molar heat capacity at constant pressure,"[2]; 150 K, Crystal 1",216.1 ± 0.4 J/K/mol
same,molar heat capacity at constant pressure,"[2]; 160 K, Crystal 1",225.6 ± 0.4 J/K/mol
same,molar heat capacity at constant pressure,"[2]; 170 K, Crystal 1",235.5 ± 0.4 J/K/mol
same,molar heat capacity at constant pressure,"[2]; 180 K, Crystal 1",245.9 ± 0.4 J/K/mol
same,molar heat capacity at constant pressure,"[2]; 190 K, Crystal 1",256.7 ± 0.5 J/K/mol
same,molar heat capacity at constant pressure,"[2]; 200 K, Crystal 1",267.8 ± 0.5 J/K/mol
same,molar heat capacity at constant pressure,"[2]; 210 K, Crystal 1",279.3 ± 0.5 J/K/mol
same,molar heat capacity at constant pressure,"[2]; 220 K, Crystal 1",290.9 ± 0.5 J/K/mol
same,molar heat capacity at constant pressure,"[2]; 230 K, Crystal 1",302.8 ± 0.5 J/K/mol
same,molar heat capacity at constant pressure,"[2]; 240 K, Crystal 1",314.9 ± 0.5 J/K/mol
same,molar heat capacity at constant pressure,"[2]; 250 K, Crystal 1",327.1 ± 0.5 J/K/mol
same,molar heat capacity at constant pressure,"[2]; 260 K, Crystal 1",339.4 ± 0.5 J/K/mol
same,molar heat capacity at constant pressure,"[2]; 270 K, Crystal 1",351.9 ± 0.6 J/K/mol
same,molar heat capacity at constant pressure,"[2]; 280 K, Crystal 1",364.5 ± 0.6 J/K/mol
same,molar heat capacity at constant pressure,"[2]; 290 K, Crystal 1",377.3 ± 0.6 J/K/mol
same,molar heat capacity at constant pressure,"[2]; 290.98 K, Crystal 1",378.5 ± 0.6 J/K/mol
same,molar heat capacity at constant pressure,"[2]; 290.98 K, Liquid",423.9 ± 0.6 J/K/mol
same,molar heat capacity at constant pressure,"[2]; 298.15 K, Liquid",427.7 ± 0.6 J/K/mol
same,molar heat capacity at constant pressure,"[2]; 300 K, Liquid",428.6 ± 0.6 J/K/mol
same,molar heat capacity at constant pressure,"[2]; 310 K, Liquid",433.9 ± 0.6 J/K/mol
same,molar heat capacity at constant pressure,"[2]; 320 K, Liquid",439.2 ± 0.6 J/K/mol
same,molar heat capacity at constant pressure,"[2]; 330 K, Liquid",444.6 ± 0.6 J/K/mol
same,molar heat capacity at constant pressure,"[2]; 340 K, Liquid",450 ± 0.7 J/K/mol
same,molar heat capacity at constant pressure,"[2]; 350 K, Liquid",455.4 ± 0.7 J/K/mol
same,molar heat capacity at constant pressure,"[2]; 360 K, Liquid",460.9 ± 0.7 J/K/mol
same,molar heat capacity at constant pressure,"[2]; 370 K, Liquid",466.4 ± 0.7 J/K/mol
